In ChEMBL document CHEMBL4422615, “Novel non-xanthine antagonist of the A2B adenosine receptor: From HTS hit to lead structure” (Eur J Med Chem, 2019):
Activity calls are given as the source filed them. The rule behind the calls is not given here.

Experiments:
[1] = MRT in dog at 1 mg/kg, po for 15 mins by HPLC-MS/MS analysis; assay type: ADME, organism-based, Canis lupus familiaris; conditions: in vivo
[2] = Clearance in mouse plasma at 0.3 mg/kg, iv administered as bolus dose by HPLC-MS/MS analysis; assay type: ADME, organism-based
Adenosine receptor A2a [3] = target: Adenosine receptor A2a (Rattus norvegicus, UniProt P30543); assay: Antagonist activity at recombinant rat A2A adenosine receptor expressed in CHO cells after 3 to 4 hrs by luciferase reporter gene assay; assay type: cell-based
Sequence of Adenosine receptor A2a (Rattus norvegicus, UniProt P30543) (P30543 whole entry, the tested form may be a part): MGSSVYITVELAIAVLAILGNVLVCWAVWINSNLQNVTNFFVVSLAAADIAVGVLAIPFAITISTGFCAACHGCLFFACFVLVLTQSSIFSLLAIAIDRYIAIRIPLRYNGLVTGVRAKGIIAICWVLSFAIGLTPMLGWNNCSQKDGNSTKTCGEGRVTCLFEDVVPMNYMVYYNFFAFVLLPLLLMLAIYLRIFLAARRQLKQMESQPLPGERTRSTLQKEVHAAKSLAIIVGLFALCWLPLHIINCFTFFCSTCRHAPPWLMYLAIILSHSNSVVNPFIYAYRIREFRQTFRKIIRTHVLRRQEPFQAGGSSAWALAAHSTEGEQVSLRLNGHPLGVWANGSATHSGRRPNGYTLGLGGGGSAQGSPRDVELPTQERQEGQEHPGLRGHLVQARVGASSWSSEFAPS

[4] = Dose normalized AUC in rat at 0.3 mg/kg, iv administered as infusion for 15 mins by HPLC-MS/MS analysis; assay type: ADME, organism-based; conditions: in vivo, 0.25 h
Cytochrome P450 3A4 = Cytochrome P450 3A4 (Homo sapiens, UniProt P08684); assay: Inhibition of CYP3A4 in human liver microsomes using midazolam as substrate preincubated for 30 mins followed by substrate addition measured after 10 mins in presence of NADPH by LC-MS/MS analysis; assay type: ADME
Sequence of Cytochrome P450 3A4 (P08684 whole entry): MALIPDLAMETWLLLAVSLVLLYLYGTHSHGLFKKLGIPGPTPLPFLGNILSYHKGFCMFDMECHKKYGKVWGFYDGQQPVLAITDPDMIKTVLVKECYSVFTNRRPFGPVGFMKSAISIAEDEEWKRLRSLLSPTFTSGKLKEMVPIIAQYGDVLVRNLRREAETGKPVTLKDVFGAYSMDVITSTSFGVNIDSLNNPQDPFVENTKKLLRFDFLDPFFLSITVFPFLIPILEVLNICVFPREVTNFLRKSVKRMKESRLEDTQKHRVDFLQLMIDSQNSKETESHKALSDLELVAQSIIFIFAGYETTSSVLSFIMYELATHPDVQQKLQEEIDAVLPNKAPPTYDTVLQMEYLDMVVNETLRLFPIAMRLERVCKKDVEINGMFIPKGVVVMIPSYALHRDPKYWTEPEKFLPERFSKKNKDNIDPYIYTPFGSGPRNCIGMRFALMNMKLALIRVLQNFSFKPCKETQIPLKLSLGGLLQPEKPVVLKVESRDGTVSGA

[5] = Partition coefficient, log P of the compound; assay type: physicochemical; conditions: octanol/water
[6] = Dose normalized Cmax in mouse at 1 mg/kg, iv administered as bolus dose by HPLC-MS/MS analysis; assay type: ADME, organism-based; conditions: in vivo
[7] = Half life in mouse at 0.3 mg/kg, iv administered as bolus dose by HPLC-MS/MS analysis; assay type: ADME, organism-based; conditions: in vivo
Cytochrome P450 2D6 = Cytochrome P450 2D6 (Homo sapiens, UniProt P10635); assay: Inhibition of CYP2D6 in human liver microsomes using dextromethorphan as substrate after 15 mins in presence of NADPH by LC-MS/MS analysis; assay type: ADME
Sequence of Cytochrome P450 2D6 (P10635 whole entry): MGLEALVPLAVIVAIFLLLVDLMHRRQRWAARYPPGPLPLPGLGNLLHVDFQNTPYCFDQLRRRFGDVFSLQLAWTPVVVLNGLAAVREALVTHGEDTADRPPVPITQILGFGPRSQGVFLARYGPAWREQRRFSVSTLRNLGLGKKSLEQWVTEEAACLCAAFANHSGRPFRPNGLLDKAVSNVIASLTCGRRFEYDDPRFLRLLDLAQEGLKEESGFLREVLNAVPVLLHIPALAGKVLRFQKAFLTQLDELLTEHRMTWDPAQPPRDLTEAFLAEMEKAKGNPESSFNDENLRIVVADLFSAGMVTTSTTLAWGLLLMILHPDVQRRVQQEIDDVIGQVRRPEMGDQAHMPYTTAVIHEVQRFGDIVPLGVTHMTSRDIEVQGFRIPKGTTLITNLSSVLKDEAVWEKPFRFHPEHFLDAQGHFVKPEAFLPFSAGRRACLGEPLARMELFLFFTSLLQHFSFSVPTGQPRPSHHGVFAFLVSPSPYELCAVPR

[8] = Dose normalized AUC in dog at 1 mg/kg, po for 15 mins by HPLC-MS/MS analysis; assay type: ADME, organism-based, Canis lupus familiaris; conditions: in vivo, 0.25 h
Adenosine receptor A2a [9] = target: Adenosine receptor A2a (Homo sapiens, UniProt P29274); assay: Displacement of [3H]CGS21680 from human A2A adenosine receptor expressed in HEK293 cell membranes after 120 mins by radioligand displacement assay
Sequence of Adenosine receptor A2a (Homo sapiens, UniProt P29274) (P29274 whole entry): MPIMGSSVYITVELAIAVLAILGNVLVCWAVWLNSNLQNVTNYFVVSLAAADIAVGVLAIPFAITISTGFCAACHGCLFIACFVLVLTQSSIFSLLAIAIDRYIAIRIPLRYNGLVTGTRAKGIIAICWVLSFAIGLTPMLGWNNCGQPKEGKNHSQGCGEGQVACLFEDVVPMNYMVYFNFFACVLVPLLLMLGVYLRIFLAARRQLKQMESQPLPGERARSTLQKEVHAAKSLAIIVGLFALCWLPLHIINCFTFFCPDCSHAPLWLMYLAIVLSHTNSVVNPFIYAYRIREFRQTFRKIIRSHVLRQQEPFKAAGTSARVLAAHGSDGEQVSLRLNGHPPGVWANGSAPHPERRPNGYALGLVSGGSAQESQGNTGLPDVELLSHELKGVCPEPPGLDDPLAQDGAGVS

[10] = Clearance in rat plasma at 0.3 mg/kg, iv administered as bolus dose by HPLC-MS/MS analysis; assay type: ADME, organism-based
[11] = Oral bioavailability in dog at 1 mg/kg for 15 mins by HPLC-MS/MS analysis; assay type: ADME, organism-based, Canis lupus familiaris; conditions: in vivo
[12] = MRT in dog at 0.3 mg/kg, iv administered as infusion for 15 mins by HPLC-MS/MS analysis; assay type: ADME, organism-based, Canis lupus familiaris; conditions: in vivo
[13] = Oral bioavailability in rat at 1 mg/kg for 15 mins by HPLC-MS/MS analysis; assay type: ADME, organism-based; conditions: in vivo
Cytochrome P450 2C9 = Cytochrome P450 2C9 (Homo sapiens, UniProt P11712); assay: Inhibition of CYP2C9 in human liver microsomes using diclofenac as substrate after 15 mins in presence of NADPH by LC-MS/MS analysis; assay type: ADME
Sequence of Cytochrome P450 2C9 (P11712 whole entry): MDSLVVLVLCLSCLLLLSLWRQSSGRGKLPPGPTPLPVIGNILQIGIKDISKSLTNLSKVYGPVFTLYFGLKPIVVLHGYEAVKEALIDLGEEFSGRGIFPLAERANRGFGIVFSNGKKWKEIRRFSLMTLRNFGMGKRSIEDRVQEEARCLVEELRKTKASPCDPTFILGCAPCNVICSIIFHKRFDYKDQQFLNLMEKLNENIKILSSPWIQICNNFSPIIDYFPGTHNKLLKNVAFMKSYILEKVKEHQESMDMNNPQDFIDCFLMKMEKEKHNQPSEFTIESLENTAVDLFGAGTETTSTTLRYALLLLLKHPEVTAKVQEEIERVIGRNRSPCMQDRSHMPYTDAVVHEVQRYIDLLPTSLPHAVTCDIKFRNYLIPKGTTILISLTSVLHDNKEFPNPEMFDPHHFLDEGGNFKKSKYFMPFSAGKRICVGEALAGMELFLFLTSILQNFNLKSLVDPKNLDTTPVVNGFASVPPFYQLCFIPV

Cytochrome P450 2C8 = target: T1, Cytochrome P450 2C8 (Homo sapiens, UniProt P10632); assay: Inhibition of CYP2C8 in human liver microsomes using amodiaquine as substrate after 15 mins in presence of NADPH by LC-MS/MS analysis; assay type: ADME
T1 sequence (P10632 whole entry): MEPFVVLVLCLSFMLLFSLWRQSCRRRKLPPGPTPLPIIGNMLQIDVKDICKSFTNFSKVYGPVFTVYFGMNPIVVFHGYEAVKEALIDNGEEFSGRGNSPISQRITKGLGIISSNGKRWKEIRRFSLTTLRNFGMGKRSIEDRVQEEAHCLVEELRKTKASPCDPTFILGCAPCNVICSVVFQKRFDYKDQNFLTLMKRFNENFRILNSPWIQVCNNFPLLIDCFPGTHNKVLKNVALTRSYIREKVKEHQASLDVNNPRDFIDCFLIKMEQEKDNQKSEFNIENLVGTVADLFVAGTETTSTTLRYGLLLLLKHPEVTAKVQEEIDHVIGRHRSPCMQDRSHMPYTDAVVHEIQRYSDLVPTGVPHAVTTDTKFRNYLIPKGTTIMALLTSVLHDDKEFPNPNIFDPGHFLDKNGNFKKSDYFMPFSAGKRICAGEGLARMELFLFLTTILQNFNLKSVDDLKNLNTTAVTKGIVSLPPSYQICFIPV

Adenosine receptor A2b = target: T2, Adenosine receptor A2b (Rattus norvegicus, UniProt P29276); assay: Antagonist activity at recombinant rat A2B adenosine receptor expressed in CHO cells after 3 to 4 hrs by luciferase reporter gene assay; assay type: cell-based
T2 sequence (P29276 whole entry): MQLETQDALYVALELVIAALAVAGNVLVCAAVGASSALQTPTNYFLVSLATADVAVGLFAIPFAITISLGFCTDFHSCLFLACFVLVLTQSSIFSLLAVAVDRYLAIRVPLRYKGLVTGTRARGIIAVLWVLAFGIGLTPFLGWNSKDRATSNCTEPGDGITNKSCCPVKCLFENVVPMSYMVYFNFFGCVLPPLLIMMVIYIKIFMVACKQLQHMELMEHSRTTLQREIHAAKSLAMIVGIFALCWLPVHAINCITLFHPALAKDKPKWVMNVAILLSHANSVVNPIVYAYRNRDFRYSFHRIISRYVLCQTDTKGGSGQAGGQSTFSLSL

[14] = Toxicity in silica-induced C57BL/6J mouse pulmonary fibrosis model assessed as change in body weight at 100 to 500 mg/kg, bid administered via gavage treated from day 1 until day 7 after silica application; assay type: organism-based; conditions: in vivo, po
Mus musculus [15] = assay: Antifibrotic activity in FITC-induced C57BL/6J mouse pulmonary fibrosis model assessed as reduction in osteopontin level in lung at 100 to 500 mg/kg, bid administered via gavage pretreated for 45 mins before FITC addition until 72 hrs after FITC application by ELISA; assay type: functional, organism-based
[16] = Fraction unbound in rat plasma by equilibrium dialysis method; assay type: ADME, cell-free
[17] = Fraction unbound in dog plasma by equilibrium dialysis method; assay type: ADME, cell-free, Canis lupus familiaris
Adenosine receptor A3 = target: T3, Adenosine receptor A3 (Mus musculus, UniProt Q61618); assay: Antagonist activity at recombinant mouse A3 adenosine receptor expressed in CHO cells after 3 to 4 hrs by luciferase reporter gene assay; assay type: cell-based
T3 sequence (Q61618 whole entry): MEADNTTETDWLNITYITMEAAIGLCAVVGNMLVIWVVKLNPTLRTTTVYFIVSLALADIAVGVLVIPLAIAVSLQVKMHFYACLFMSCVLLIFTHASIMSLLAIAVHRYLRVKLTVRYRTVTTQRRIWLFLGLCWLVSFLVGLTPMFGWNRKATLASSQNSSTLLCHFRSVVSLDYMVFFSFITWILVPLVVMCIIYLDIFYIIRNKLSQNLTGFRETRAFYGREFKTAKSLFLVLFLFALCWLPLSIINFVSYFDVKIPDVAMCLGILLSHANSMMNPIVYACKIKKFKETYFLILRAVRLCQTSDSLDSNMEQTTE

[18] = Dose normalized AUC in dog at 0.3 mg/kg, iv administered as infusion for 15 mins by HPLC-MS/MS analysis; assay type: ADME, organism-based, Canis lupus familiaris; conditions: in vivo, 0.25 h
[19] = Clearance in dog blood at 0.3 mg/kg, iv administered as bolus dose by HPLC-MS/MS analysis; assay type: ADME, organism-based, Canis lupus familiaris
Mus musculus [20] = assay: Antifibrotic activity in FITC-induced C57BL/6J mouse pulmonary fibrosis model assessed as reduction in total number of cells in BALF at 100 to 500 mg/kg, bid administered via gavage pretreated for 45 mins before FITC addition until 72 hrs after FITC application; assay type: functional, organism-based

In the case of `CCn1c(=O)c2c(C)c(C(=O)N3CCC(O)CC3)sc2n(CCC(F)(F)F)c1=O`, the MRT [1] is reported as 4.4 h, the clearance [2] is reported as 10.2 mL/min/kg and the IC50 (Adenosine receptor A2a [3]) is reported as 0.75 µM. It also gave an AUC/dose [4] of 0.88 kg·h/L, an IC50 (Cytochrome P450 3A4) of over 20 µM and a logP [5] of 1.99. It also gave a Cmax/dose [6] of 1.2 kg/L, a half-life [7] of 1.2 h and an IC50 (Cytochrome P450 2D6) of over 20 µM. For the same molecule, the AUC/dose [8] was 2 kg·h/L, the Ki (Adenosine receptor A2a [9]) was over 1 µM and the clearance [10] was 18.3 mL/min/kg. The bioavailability [11] was 79%, the MRT [12] was 4.9 h and the bioavailability [13] was 88%. For the same molecule, the IC50 (Cytochrome P450 2C9) was over 20 µM, the IC50 (Cytochrome P450 2C8) was over 20 µM and the IC50 (Adenosine receptor A2b) was 0.28 µM. The Activity [14] was “Non-Toxic”, the Activity (Mus musculus [15]) was “inactive” and the fraction unbound [16] was 0.7. The fraction unbound [17] was 0.54, the IC50 (Adenosine receptor A3) was over 6.7 µM and the AUC/dose [18] was 2.5 kg·h/L. For the same molecule, the clearance [19] was 7.33 mL/min/kg and the Activity (Mus musculus [20]) was “Active”.
